Measured values published in PubChem BioAssay (NCI).
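Assay format: 96-well plates, 48-hour exposure. Here, GI50 denotes the concentration required for 50% inhibition of growth. The concentration for full growth arrest is given as TGI.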

Key:
Assay in all cases: NCI anticancer screen, dose series, 48 h
[1] = test system: SNB-75 CNS
[2] = test system: NCI-H460 lung
[3] = test system: MCF7 breast
[4] = test system: TK-10 renal
[5] = test system: HCT-116 colon
[6] = test system: SF-539 CNS
[7] = test system: HL-60(TB) leukemia
[8] = test system: NCI-H23 lung
[9] = test system: NCI/ADR-RES ovarian
[10] = test system: SK-MEL-28 melanoma
[11] = test system: SK-MEL-5 melanoma
[12] = test system: LOX IMVI melanoma
[13] = test system: RXF 393 renal
[14] = test system: SK-MEL-2 melanoma
[15] = test system: SF-295 CNS
[16] = test system: U251 CNS
[17] = test system: OVCAR-8 ovarian
[18] = test system: HS 578T breast
[19] = test system: OVCAR-4 ovarian
[20] = test system: NCI-H226 lung
[21] = test system: SF-268 CNS
[22] = test system: SW-620 colon
[23] = test system: UACC-257 melanoma
[24] = test system: CAKI-1 renal
[25] = test system: EKVX NSCLC
[26] = test system: UACC-62 melanoma
[27] = test system: HCT-15 colon
[28] = test system: MALME-3M melanoma
[29] = test system: OVCAR-3 ovarian
[30] = test system: RPMI-8226 leukemia
[31] = test system: K-562 leukemia
[32] = test system: SK-OV-3 ovarian
[33] = test system: BT-549 breast
[34] = test system: SN12C renal
[35] = test system: 786-0 renal
[36] = test system: PC-3 prostate
[37] = test system: OVCAR-5 ovarian
[38] = test system: KM12 colon
[39] = test system: A549 NSCLC
[40] = test system: COLO 205 colon
[41] = test system: MDA-MB-468 breast
[42] = test system: HOP-92 NSCLC
[43] = test system: DU-145 prostate
[44] = test system: MDA-MB-435
[45] = test system: A498 renal
[46] = test system: SNB-19 CNS
[47] = test system: MDA-MB-231 breast
[48] = test system: SR leukemia
[49] = test system: CCRF-CEM leukemia
[50] = test system: IGROV1 ovarian
[51] = test system: T-47D breast
[52] = test system: HCC-2998 colon
[53] = test system: UO-31 renal
[54] = test system: MOLT-4 leukemia
[55] = test system: M14 melanoma
[56] = test system: NCI-H522 lung
[57] = test system: ACHN renal
[58] = test system: HOP-62 NSCLC
[59] = test system: HT29 colon

COc1nc(N)ncc1-c1ccc2ncnc(N3CCc4cc(F)c(Cl)cc43)c2c1
GI50 [1]: 1.47 µM | TGI [1]: 4.02 µM | GI50 [2]: 2.65 µM | TGI [2]: 7.97 µM | GI50 [3]: 3.11 µM | TGI [3]: 22 µM | GI50 [4]: 0.703 µM | TGI [4]: 4.23 µM | GI50 [5]: 2.93 µM | TGI [5]: 11.3 µM | GI50 [6]: 2.96 µM | TGI [6]: 12.5 µM | GI50 [7]: 3.08 µM | TGI [7]: > 100 µM | GI50 [8]: 4.26 µM | TGI [8]: 39.1 µM | GI50 [9]: 2.73 µM | TGI [9]: 15.7 µM | GI50 [10]: 5.2 µM | TGI [10]: 18.9 µM | GI50 [11]: 4.15 µM | TGI [11]: > 100 µM | GI50 [12]: 3.11 µM | TGI [12]: 14.8 µM | GI50 [13]: 1.5 µM | TGI [13]: 5.28 µM | GI50 [14]: > 100 µM | TGI [14]: > 100 µM | GI50 [15]: 2.37 µM | TGI [15]: 7.58 µM | GI50 [16]: 2.3 µM | TGI [16]: 7.74 µM | GI50 [17]: 2.33 µM | TGI [17]: 9.2 µM | GI50 [18]: 2 µM | TGI [18]: 8.4 µM | GI50 [19]: 1.87 µM | TGI [19]: 4.28 µM | GI50 [20]: 1.15 µM | TGI [20]: 4.21 µM | GI50 [21]: 12.3 µM | TGI [21]: > 100 µM | GI50 [22]: 4.26 µM | TGI [22]: > 100 µM | GI50 [23]: 8.26 µM | TGI [23]: 83.6 µM | GI50 [24]: 1.2 µM | TGI [24]: 3.78 µM | GI50 [25]: 1.93 µM | TGI [25]: 86.2 µM | GI50 [26]: 3.92 µM | TGI [26]: 19.9 µM | GI50 [27]: 3.04 µM | TGI [27]: 24.7 µM | GI50 [28]: 8.68 µM | TGI [28]: 49.4 µM | GI50 [29]: 2.3 µM | TGI [29]: 11.2 µM | GI50 [30]: 3.26 µM | TGI [30]: > 100 µM | GI50 [31]: 6.45 µM | TGI [31]: > 100 µM | GI50 [32]: 1.62 µM | TGI [32]: 4.03 µM | GI50 [33]: 6.44 µM | TGI [33]: > 100 µM | GI50 [34]: 1.92 µM | TGI [34]: 10.1 µM | GI50 [35]: 1.49 µM | TGI [35]: 3.38 µM | GI50 [36]: 10.6 µM | TGI [36]: > 100 µM | GI50 [37]: 3.92 µM | TGI [37]: > 100 µM | GI50 [38]: 10.4 µM | TGI [38]: > 100 µM | GI50 [39]: 2.04 µM | TGI [39]: 8.55 µM | GI50 [40]: 3.37 µM | TGI [40]: > 100 µM | GI50 [41]: 0.269 µM | TGI [41]: 1.81 µM | GI50 [42]: 1.81 µM | TGI [42]: 7.23 µM | GI50 [43]: 3.82 µM | TGI [43]: 36.2 µM | GI50 [44]: 6.94 µM | TGI [44]: > 100 µM | GI50 [45]: 1.54 µM | TGI [45]: 5.43 µM | GI50 [46]: 2.21 µM | TGI [46]: 12.2 µM | GI50 [47]: 1.84 µM | TGI [47]: 6.46 µM | GI50 [48]: 3.09 µM | TGI [48]: > 100 µM | GI50 [49]: 26 µM | TGI [49]: > 100 µM | GI50 [50]: 0.594 µM | TGI [50]: 3.82 µM | GI50 [51]: 1.61 µM | TGI [51]: 7.67 µM | GI50 [52]: 2.79 µM | TGI [52]: 10.1 µM | GI50 [53]: 0.583 µM | TGI [53]: 3.99 µM | GI50 [54]: 11.7 µM | TGI [54]: > 100 µM | GI50 [55]: 18.9 µM | TGI [55]: > 100 µM | GI50 [56]: 2.3 µM | TGI [56]: 11.5 µM | GI50 [57]: 1.21 µM | TGI [57]: 4.22 µM | GI50 [58]: 1.47 µM | TGI [58]: 5.85 µM | GI50 [59]: 7.86 µM | TGI [59]: 52.2 µM
